Results: PubChem BioAssay AID1919001 (Molecular Pharmacology Branch, DTP, NCI, 2023)
Several values for one entry are separate records, joined by “and”; a condition that tells them apart may be missing. Equal entries are not always repeated.

Tested on: 699152-130-R-J1-PDC complex spheroid growth
Test: Anticancer human tumor 699152-130-R-J1-PDC patient-derived pancreatic carcinoma cell line growth inhibition [AhR]
Conditions: for viability, T/C: stronger effect = lower value
Outline: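 Agents were dosed in half-log steps down from roughly clinical Cmax, or from 10 microM where Cmax was unknown, alone and with AhR antagonists. Read-out: percent test/control growth of tumor spheroids containing HUVEC and MSC stromal cells.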

[1] = curve of first compound, second compound 0.1 µM
[2] = curve of first compound, second compound 0.316 µM
[3] = curve of first compound, second compound 1 µM
[4] = curve of first compound, second compound 3.16 µM
[5] = curve of first compound, second compound 10 µM
[6] = second compound 0.1 µM, first compound 0.0316 µM
[7] = second compound 0.1 µM, first compound 0.1 µM
[8] = second compound 0.1 µM, first compound 0.316 µM
[9] = second compound 0.1 µM, first compound 1 µM
[10] = second compound 0.1 µM, first compound 3.16 µM
[11] = second compound 0.1 µM, first compound 10 µM
[12] = second compound 0.316 µM, first compound 0.0316 µM
[13] = second compound 0.316 µM, first compound 0.1 µM
[14] = second compound 0.316 µM, first compound 0.316 µM
[15] = second compound 0.316 µM, first compound 1 µM
[16] = second compound 0.316 µM, first compound 3.16 µM
[17] = second compound 0.316 µM, first compound 10 µM
[18] = second compound 1 µM, first compound 0.0316 µM
[19] = second compound 1 µM, first compound 0.1 µM
[20] = second compound 1 µM, first compound 0.316 µM
[21] = second compound 1 µM, first compound 1 µM
[22] = second compound 1 µM, first compound 3.16 µM
[23] = second compound 1 µM, first compound 10 µM
[24] = second compound 3.16 µM, first compound 0.0316 µM
[25] = second compound 3.16 µM, first compound 0.1 µM
[26] = second compound 3.16 µM, first compound 0.316 µM
[27] = second compound 3.16 µM, first compound 1 µM
[28] = second compound 3.16 µM, first compound 3.16 µM
[29] = second compound 3.16 µM, first compound 10 µM
[30] = second compound 10 µM, first compound 0.0316 µM
[31] = second compound 10 µM, first compound 0.1 µM
[32] = second compound 10 µM, first compound 0.316 µM
[33] = second compound 10 µM, first compound 1 µM
[34] = second compound 10 µM, first compound 3.16 µM
[35] = second compound 10 µM, first compound 10 µM
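Note: compound exposure lasted 7 days after spheroids had grown for 3 days.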

Compound	IC50 [1]	IC50 [2]	IC50 [3]	IC50 [4]	IC50 [5]	viability, T/C [6]	viability, T/C [7]	viability, T/C [8]	viability, T/C [9]	viability, T/C [10]	viability, T/C [11]	viability, T/C [12]	viability, T/C [13]	viability, T/C [14]	viability, T/C [15]	viability, T/C [16]	viability, T/C [17]	viability, T/C [18]	viability, T/C [19]	viability, T/C [20]	other results
O=C(C=Cc1cccc(S(=O)(=O)Nc2ccccc2)c1)NO + Cc1ccccc1N=Nc1ccc(NC(=O)c2ccnn2C)c(C)c1	> 10 µM	> 10 µM	> 10 µM	> 10 µM	> 10 µM	91.2%	109%	111%	110%	108%	97.8%	87.9%	99.4%	106%	114%	97.3%	95.4%	97.5%	118%	111%	viability, T/C [21]: 116%; viability, T/C [22]: 101%; viability, T/C [23]: 96.2%; viability, T/C [24]: 103%; viability, T/C [25]: 102%; viability, T/C [26]: 107%; viability, T/C [27]: 115%; viability, T/C [28]: 103%; viability, T/C [29]: 81.5%; viability, T/C [30]: 109%; viability, T/C [31]: 114%; viability, T/C [32]: 116%; viability, T/C [33]: 122%; viability, T/C [34]: 97%; viability, T/C [35]: 85.2%
CC1COCCN1c1cc(C2(S(C)(=N)=O)CC2)nc(-c2ccnc3[nH]ccc23)n1 (configuration not stated)	–	–	–	–	–	–	–	–	–	–	–	–	–	–	–	–	–	–	–	–	viability, T/C (compound 0.0316 µM): 100% and 99.4% and 98.3%; viability, T/C (compound 0.1 µM): 103% and 95.1% and 112%; viability, T/C (compound 0.316 µM): 91.5% and 95.4% and 103%; viability, T/C (compound 1 µM): 96.7% and 88.4% and 104%; viability, T/C (compound 3.16 µM): 93% and 82.9% and 89.2%; viability, T/C (compound 10 µM): 78% and 67.5% and 71.1%; IC50 (curve of compound): > 10 µM
O=C(c1cc(Cc2n[nH]c(=O)c3ccccc23)ccc1F)N1CCN(C(=O)C2CC2)CC1 + Cc1cncc(-c2nc(NCCc3c[nH]c4ccccc34)c3ncn(C(C)C)c3n2)c1	> 10 µM	> 10 µM	> 10 µM	> 10 µM	< 0.0316 µM	119%	104%	105%	97.6%	120%	82.9%	104%	101%	111%	105%	95.3%	90%	119%	120%	119%	viability, T/C [21]: 116%; viability, T/C [22]: 107%; viability, T/C [23]: 106%; viability, T/C [24]: 96.8%; viability, T/C [25]: 93.7%; viability, T/C [26]: 89.7%; viability, T/C [27]: 90%; viability, T/C [28]: 95.1%; viability, T/C [29]: 93.4%; viability, T/C [30]: 9.79%; viability, T/C [31]: 10.4%; viability, T/C [32]: 12.8%; viability, T/C [33]: 11.7%; viability, T/C [34]: 11.9%; viability, T/C [35]: 15.3%
